{"source": "paper PMC5218480", "about": "(PLoS ONE, 2017)", "test_system": "MV-4-11 cells", "assay": "Gene expression microarray analysis (Affymetrix PrimeView) and GSEA", "assay_type": "cell-based, human", "parameters": "RFU PODN (11730768_x_at) / Fold change /veh PODN (11730768_x_at) / RFU LINC00158 (11744669_a_at) / Fold change /veh LINC00158 (11744669_a_at) / RFU DUSP10 (11751237_a_at) / Fold change /veh DUSP10 (11751237_a_at) / RFU ID3 (11757404_x_at) / Fold change /veh ID3 (11757404_x_at) / RFU PLEKHG5 (11737974_s_at) / Fold change /veh PLEKHG5 (11737974_s_at) / RFU LRRC4B (11730491_at) / Fold change /veh LRRC4B (11730491_at) / RFU GIMAP4 (11747438_a_at) / Fold change /veh GIMAP4 (11747438_a_at) / RFU KRT8 (11758183_x_at) / Fold change /veh KRT8 (11758183_x_at) / RFU CNN1 (11734310_a_at) / Fold change /veh CNN1 (11734310_a_at) / RFU VPS37D (11726825_at) / Fold change /veh VPS37D (11726825_at) / RFU C10orf10 (11716522_x_at) / Fold change /veh C10orf10 (11716522_x_at) / RFU KIR2DL2 /// KIR2DL4 /// KIR2DL5A /// KIR2DL5B /// KIR2DS1 /// KIR2DS2 /// KIR2DS3 /// KIR2DS4 /// KIR3DL3 /// KIR3DL3 /// KIR3DS1 (11738374_at) / Fold change /veh KIR2DL2 /// KIR2DL4 /// KIR2DL5A /// KIR2DL5B /// KIR2DS1 /// KIR2DS2 /// KIR2DS3 /// KIR2DS4 /// KIR3DL3 /// KIR3DL3 /// KIR3DS1 (11738374_at) / RFU C1QL1 (11718748_at) / Fold change /veh C1QL1 (11718748_at) / RFU TMPRSS4 (11747572_a_at) / Fold change /veh TMPRSS4 (11747572_a_at) / RFU HAMP (11756126_x_at) / Fold change /veh HAMP (11756126_x_at) / RFU RNFT2 (11725882_a_at) / Fold change /veh RNFT2 (11725882_a_at) / RFU NR4A2 (11747474_a_at) / Fold change /veh NR4A2 (11747474_a_at) / RFU ABCC12 (11746883_a_at) / Fold change /veh ABCC12 (11746883_a_at) / RFU TMEM136 (11760407_x_at) / Fold change /veh TMEM136 (11760407_x_at) / RFU CLDN22 /// WWC2 (11732394_at) / Fold change /veh CLDN22 /// WWC2 (11732394_at) / RFU HLA-DPB1 (11760878_x_at) / Fold change /veh HLA-DPB1 (11760878_x_at) / RFU SPINT1 (11716480_a_at) / Fold change /veh SPINT1 (11716480_a_at) / RFU GAP43 (11754022_s_at) / Fold change /veh GAP43 (11754022_s_at) / RFU A4GNT (11735810_at) / Fold change /veh A4GNT (11735810_at) / RFU PRB3 (11715151_x_at) / Fold change /veh PRB3 (11715151_x_at) / RFU TUBB4B (11761932_at) / Fold change /veh TUBB4B (11761932_at) / RFU CAPN14 (11732068_a_at) / Fold change /veh CAPN14 (11732068_a_at) / RFU TMCC2 (11721928_a_at) / Fold change /veh TMCC2 (11721928_a_at) / RFU IRGQ (11745062_a_at) / Fold change /veh IRGQ (11745062_a_at) / RFU FAM174B (11720279_a_at) / Fold change /veh FAM174B (11720279_a_at) / RFU TMPRSS4 (11748680_a_at) / Fold change /veh TMPRSS4 (11748680_a_at) / RFU FAM212B (11763350_a_at) / Fold change /veh FAM212B (11763350_a_at) / RFU PLEKHG5 (11743358_a_at) / Fold change /veh PLEKHG5 (11743358_a_at) / RFU ZSCAN30 (11745921_a_at) / Fold change /veh ZSCAN30 (11745921_a_at) / RFU CMKLR1 (11741424_a_at) / Fold change /veh CMKLR1 (11741424_a_at) / RFU LOC101060620 /// MAPK8IP1 (11723275_at) / Fold change /veh LOC101060620 /// MAPK8IP1 (11723275_at) / RFU SPTSSB (11747773_x_at) / Fold change /veh SPTSSB (11747773_x_at) / RFU PRSS12 (11739890_at) / Fold change /veh PRSS12 (11739890_at) / RFU BIN1 (11741810_x_at) / Fold change /veh BIN1 (11741810_x_at) / RFU WNT11 (11732464_a_at) / Fold change /veh WNT11 (11732464_a_at) / RFU C10orf10 (11716521_a_at) / Fold change /veh C10orf10 (11716521_a_at) / RFU C5orf56 (11738089_at) / Fold change /veh C5orf56 (11738089_at) / RFU CYB561 (11721691_x_at) / Fold change /veh CYB561 (11721691_x_at) / RFU ANKRD19P (11752326_a_at) / Fold change /veh ANKRD19P (11752326_a_at) / RFU OR2T12 /// OR2T33 /// OR2T8 (11738714_s_at) / Fold change /veh OR2T12 /// OR2T33 /// OR2T8 (11738714_s_at) / RFU VCAN (11748164_a_at) / Fold change /veh VCAN (11748164_a_at) / RFU JSRP1 (11732532_at) / Fold change /veh JSRP1 (11732532_at) / RFU KRTAP10-11 (11738290_x_at) / Fold change /veh KRTAP10-11 (11738290_x_at) / RFU MYO3A (11730013_a_at) / Fold change /veh MYO3A (11730013_a_at) / RFU EBF3 (11725865_a_at) / Fold change /veh EBF3 (11725865_a_at) / RFU CAMK2N1 (11719241_x_at) / Fold change /veh CAMK2N1 (11719241_x_at) / RFU C5orf56 (11738088_a_at) / Fold change /veh C5orf56 (11738088_a_at) / RFU OLFML3 (11715873_a_at) / Fold change /veh OLFML3 (11715873_a_at) / RFU LOC100653217 /// NTM (11731650_a_at) / Fold change /veh LOC100653217 /// NTM (11731650_a_at) / RFU MAPK11 (11762145_a_at) / Fold change /veh MAPK11 (11762145_a_at) / RFU FIZ1 (11724087_x_at) / Fold change /veh FIZ1 (11724087_x_at) / RFU OASL (11726364_x_at) / Fold change /veh OASL (11726364_x_at) / RFU SOX15 (11748057_x_at) / Fold change /veh SOX15 (11748057_x_at) / RFU CD79A (11719716_a_at) / Fold change /veh CD79A (11719716_a_at) / RFU HIST1H1D (11736915_at) / Fold change /veh HIST1H1D (11736915_at) / RFU CASKIN2 (11723855_a_at) / Fold change /veh CASKIN2 (11723855_a_at) / RFU LOC730098 (11760151_x_at) / Fold change /veh LOC730098 (11760151_x_at) / RFU OR4N2 (11742367_at) / Fold change /veh OR4N2 (11742367_at) / RFU PRRT2 (11749266_a_at) / Fold change /veh PRRT2 (11749266_a_at) / RFU SNX32 (11753110_a_at) / Fold change /veh SNX32 (11753110_a_at) / RFU CDHR5 (11726645_a_at) / Fold change /veh CDHR5 (11726645_a_at) / RFU RCAN1 (11760418_a_at) / Fold change /veh RCAN1 (11760418_a_at) / RFU FAM167A (11723789_a_at) / Fold change /veh FAM167A (11723789_a_at) / RFU FAM26E (11764081_at) / Fold change /veh FAM26E (11764081_at) / RFU ISYNA1 (11749810_s_at) / Fold change /veh ISYNA1 (11749810_s_at) / RFU ACY1 (11761880_at) / Fold change /veh ACY1 (11761880_at) / RFU 11764098_at / Fold change /veh 11764098_at / RFU SAMD14 (11745864_x_at) / Fold change /veh SAMD14 (11745864_x_at) / RFU NPB (11741838_a_at) / Fold change /veh NPB (11741838_a_at) / RFU TMPRSS6 (11731388_a_at) / Fold change /veh TMPRSS6 (11731388_a_at) / RFU KRTAP10-2 (11738614_at) / Fold change /veh KRTAP10-2 (11738614_at) / RFU ARHGAP8 /// PRR5-ARHGAP8 (11727945_x_at) / Fold change /veh ARHGAP8 /// PRR5-ARHGAP8 (11727945_x_at) / RFU KRTAP5-7 /// NADSYN1 (11734609_at) / Fold change /veh KRTAP5-7 /// NADSYN1 (11734609_at) / RFU RASL12 (11751679_a_at) / Fold change /veh RASL12 (11751679_a_at) / RFU CDKN2B (11736163_a_at) / Fold change /veh CDKN2B (11736163_a_at) / RFU PRF1 (11729649_at) / Fold change /veh PRF1 (11729649_at) / RFU, ZNF638 /// ZNF638-IT1 / Fold change vs veh, ZNF638 /// ZNF638-IT1 / RFU, PANK3 / Fold change vs veh, PANK3 / RFU, SH3YL1 / Fold change vs veh, SH3YL1 / RFU, ZEB2 / Fold change vs veh, ZEB2 / RFU, NRIP1 / Fold change vs veh, NRIP1 / RFU, PTTG1IP / Fold change vs veh, PTTG1IP / RFU, CAPN2 / Fold change vs veh, CAPN2 / RFU, MED14 / Fold change vs veh, MED14 / RFU, SNORA58 / Fold change vs veh, SNORA58 / RFU, C1orf63 / Fold change vs veh, C1orf63 / RFU, LRRFIP1 / Fold change vs veh, LRRFIP1 / RFU, NDUFAF7 / Fold change vs veh, NDUFAF7 / RFU, SLC12A2 / Fold change vs veh, SLC12A2 / RFU, IBTK / Fold change vs veh, IBTK / RFU, ESF1 / Fold change vs veh, ESF1 / Fold change vs veh, TMEM50B / RFU, TAOK1 / Fold change vs veh, TAOK1 / RFU, ACBD3 / Fold change vs veh, ACBD3 / RFU, TMA16 / Fold change vs veh, TMA16 / RFU, RWDD3 / Fold change vs veh, RWDD3 / RFU, BCAT1 / Fold change vs veh, BCAT1 / RFU, EDEM3 / Fold change vs veh, EDEM3 / RFU, TMEM33 / Fold change vs veh, TMEM33 / RFU, WDR75 / Fold change vs veh, WDR75 / RFU, AHCTF1 / Fold change vs veh, AHCTF1 / RFU, TFRC / Fold change vs veh, TFRC / RFU, ZDHHC17 / Fold change vs veh, ZDHHC17 / RFU, NOM1 / Fold change vs veh, NOM1 / RFU, ARL8B / Fold change vs veh, ARL8B / RFU, ZBTB11 / Fold change vs veh, ZBTB11 / RFU, TAMM41 / Fold change vs veh, TAMM41 / RFU, KIAA1704 /// LOC100996395 / Fold change vs veh, KIAA1704 /// LOC100996395 / RFU, ING1 / Fold change vs veh, ING1 / RFU, TRMT61B / Fold change vs veh, TRMT61B / RFU, FUBP3 / Fold change vs veh, FUBP3 / RFU, TP53 / Fold change vs veh, TP53 / RFU, TNKS2 / Fold change vs veh, TNKS2 / RFU, ZFP14 / Fold change vs veh, ZFP14 / RFU, ACTR2 / Fold change vs veh, ACTR2 / RFU, PPP3R1 / Fold change vs veh, PPP3R1 / RFU, PIK3R1 / Fold change vs veh, PIK3R1 / RFU, HNRNPA1 / Fold change vs veh, HNRNPA1 / RFU, RNF170 / Fold change vs veh, RNF170 / RFU, ZNF28 / Fold change vs veh, ZNF28 / RFU, RNGTT / Fold change vs veh, RNGTT / RFU, OGT / Fold change vs veh, OGT / RFU, BRD1 / Fold change vs veh, BRD1 / RFU, MARS / Fold change vs veh, MARS / RFU, ZNF655 / Fold change vs veh, ZNF655 / RFU, FAHD1 / Fold change vs veh, FAHD1 / RFU, BDP1 / Fold change vs veh, BDP1 / RFU, LRRCC1 / Fold change vs veh, LRRCC1 / RFU, ARID1A / Fold change vs veh, ARID1A / RFU, ZNF146 / Fold change vs veh, ZNF146 / RFU, ZNF330 / Fold change vs veh, ZNF330 / RFU, GPN3 / Fold change vs veh, GPN3 / RFU, C9orf123 / Fold change vs veh, C9orf123 / RFU, N4BP2L2 / Fold change vs veh, N4BP2L2 / RFU, ARFIP1 / Fold change vs veh, ARFIP1 / RFU, FAM179B / Fold change vs veh, FAM179B / RFU, BCL10 / Fold change vs veh, BCL10 / RFU, UHRF1BP1L / Fold change vs veh, UHRF1BP1L / RFU, BET1 / Fold change vs veh, BET1 / RFU, CNOT2 / Fold change vs veh, CNOT2 / RFU, ZNF268 / Fold change vs veh, ZNF268 / Fold change vs veh, ZNF507 / RFU, DGCR2 / Fold change vs veh, DGCR2 / RFU, WDSUB1 / Fold change vs veh, WDSUB1 / Fold change vs veh, HSP90B1 /// MIR3652 / RFU, ADSS / Fold change vs veh, ADSS / RFU, GK / Fold change vs veh, GK / RFU, ZNF148 / Fold change vs veh, ZNF148 / RFU, TAF9 / Fold change vs veh, TAF9 / RFU, SLC1A5 / Fold change vs veh, SLC1A5 / RFU, SLMO2 / Fold change vs veh, SLMO2 / RFU, ABCC4 / Fold change vs veh, ABCC4 / RFU, LOC101060439 /// RAP1B / Fold change vs veh, LOC101060439 /// RAP1B / RFU, RFX7 / Fold change vs veh, RFX7 / RFU, GTPBP10 / Fold change vs veh, GTPBP10 / RFU, CNEP1R1 / Fold change vs veh, CNEP1R1 / RFU, BIVM-ERCC5 /// ERCC5 / Fold change vs veh, BIVM-ERCC5 /// ERCC5 / RFU, ILF3 / Fold change vs veh, ILF3 / RFU 11762660_at / Fold change /veh 11762660_at / RFU VCAN (11757783_s_at) / Fold change /veh VCAN (11757783_s_at) / RFU DDX43 (11728927_at) / Fold change /veh DDX43 (11728927_at) / RFU KRT8 (11758188_x_at) / Fold change /veh KRT8 (11758188_x_at) / RFU NKD1 (11759106_at) / Fold change /veh NKD1 (11759106_at) / RFU SRD5A1 (11742802_a_at) / Fold change /veh SRD5A1 (11742802_a_at) / RFU TPSAB1 /// TPSB2 (11721975_s_at) / Fold change /veh TPSAB1 /// TPSB2 (11721975_s_at) / RFU GSTM3 (11746129_a_at) / Fold change /veh GSTM3 (11746129_a_at) / RFU IL23R (11737362_x_at) / Fold change /veh IL23R (11737362_x_at) / RFU TMEM51 (11727254_a_at) / Fold change /veh TMEM51 (11727254_a_at) / RFU PIWIL2 (11732686_x_at) / Fold change /veh PIWIL2 (11732686_x_at) / RFU ORM1 (11744905_x_at) / Fold change /veh ORM1 (11744905_x_at) / RFU CCDC152 (11743942_at) / Fold change /veh CCDC152 (11743942_at) / RFU ECM1 (11717891_a_at) / Fold change /veh ECM1 (11717891_a_at) / RFU IL23R (11748794_a_at) / Fold change /veh IL23R (11748794_a_at) / RFU TNFAIP8L3 (11732012_x_at) / Fold change /veh TNFAIP8L3 (11732012_x_at) / RFU MBOAT4 (11741988_at) / Fold change /veh MBOAT4 (11741988_at) / RFU 11764193_at / Fold change /veh 11764193_at / RFU TMEM53 (11763286_at) / Fold change /veh TMEM53 (11763286_at) / RFU MAGEB2 (11727129_at) / Fold change /veh MAGEB2 (11727129_at) / RFU TMEM200A (11744735_a_at) / Fold change /veh TMEM200A (11744735_a_at) / RFU CCDC152 (11751479_a_at) / Fold change /veh CCDC152 (11751479_a_at) / RFU FAM211A (11726209_a_at) / Fold change /veh FAM211A (11726209_a_at) / RFU RGS16 (11746705_a_at) / Fold change /veh RGS16 (11746705_a_at) / RFU VCAN (11755009_s_at) / Fold change /veh VCAN (11755009_s_at) / RFU RHOB (11743442_s_at) / Fold change /veh RHOB (11743442_s_at) / RFU RGS16 (11720943_a_at) / Fold change /veh RGS16 (11720943_a_at) / RFU RGS16 (11720944_at) / Fold change /veh RGS16 (11720944_at) / RFU, VPS4B / Fold change vs veh, VPS4B / RFU, CREB1 / Fold change vs veh, CREB1 / RFU, DNAJC13 / Fold change vs veh, DNAJC13 / RFU, GNAQ / Fold change vs veh, GNAQ / RFU, CDK5R1 / Fold change vs veh, CDK5R1 / RFU, ZRANB3 / Fold change vs veh, ZRANB3 / RFU, CUL4A / Fold change vs veh, CUL4A / RFU, CCNY / Fold change vs veh, CCNY / RFU, UFL1 / Fold change vs veh, UFL1 / RFU, COG3 / Fold change vs veh, COG3 / RFU, DIAPH2 / Fold change vs veh, DIAPH2 / RFU, SKA2 / Fold change vs veh, SKA2 / RFU, AFF3 / Fold change vs veh, AFF3 / RFU, LMF1 / Fold change vs veh, LMF1 / RFU, IPO11 / Fold change vs veh, IPO11 / RFU, DFFB / Fold change vs veh, DFFB / RFU, FOXP1 / Fold change vs veh, FOXP1 / RFU, CARD8 / Fold change vs veh, CARD8 / RFU, STRN3 / Fold change vs veh, STRN3 / RFU, ADK / Fold change vs veh, ADK / RFU, RASSF2 / Fold change vs veh, RASSF2 / RFU, WIPF1 / Fold change vs veh, WIPF1 / RFU, LARP1B / Fold change vs veh, LARP1B / RFU, RASA1 / Fold change vs veh, RASA1 / RFU, RB1 / Fold change vs veh, RB1 / RFU, PPFIA1 / Fold change vs veh, PPFIA1 / RFU, MAT2A / Fold change vs veh, MAT2A / RFU, CCT5 / Fold change vs veh, CCT5 / RFU, WDR92 / Fold change vs veh, WDR92 / RFU, CUX1 / Fold change vs veh, CUX1 / RFU, TTC7A / Fold change vs veh, TTC7A / RFU, TMEM135 / Fold change vs veh, TMEM135 / RFU, DEPTOR / Fold change vs veh, DEPTOR / RFU, CPM / Fold change vs veh, CPM / RFU, DNAJB6 / Fold change vs veh, DNAJB6 / RFU, CACNA2D3 / Fold change vs veh, CACNA2D3 / RFU, DTX4 / Fold change vs veh, DTX4 / RFU, TFCP2 / Fold change vs veh, TFCP2 / RFU, GMCL1 /// GMCL1P1 / Fold change vs veh, GMCL1 /// GMCL1P1 / RFU, AEBP2 / Fold change vs veh, AEBP2 / RFU, SNHG1 /// SNORD22 /// SNORD25 /// SNORD26 /// SNORD27 /// SNORD28 /// SNORD29 /// SNORD31 / Fold change vs veh, SNHG1 /// SNORD22 /// SNORD25 /// SNORD26 /// SNORD27 /// SNORD28 /// SNORD29 /// SNORD31 / Fold change (Aza/veh), C12orf56 (ProbeSet 11735607_a_at) / Fold change (ACY-1035/veh), C12orf56 (ProbeSet 11735607_a_at) / Fold change (Aza/veh), FGFR1OP (ProbeSet 11751329_s_at) / Fold change (ACY-1035/veh), FGFR1OP (ProbeSet 11751329_s_at) / Fold change (Aza/veh), VPS36 (ProbeSet 11739960_a_at) / Fold change (ACY-1035/veh), VPS36 (ProbeSet 11739960_a_at) / RFU SYPL1 (11715823_x_at) / Fold change /veh SYPL1 (11715823_x_at) / RFU IGFBP7 (11715501_s_at) / Fold change /veh IGFBP7 (11715501_s_at) / RFU REEP3 (11722064_at) / Fold change /veh REEP3 (11722064_at) / RFU IGLL1 (11728026_x_at) / Fold change /veh IGLL1 (11728026_x_at): dose or concentration left out as unconfirmed", "conditions": "ProbeSet 11725885_a_at; LIST B"}
{"smiles": "Nc1ncn([C@@H]2O[C@H](CO)[C@@H](O)[C@H]2O)c(=O)n1", "note": "[azacitidine]", "values": [{"measurement": "Fold change vs veh, CNEP1R1", "result": 0.86}]}
